The target in assay [1] is T1, Aldehyde dehydrogenase, mitochondrial (Rattus norvegicus, UniProt P11884).
T1 sequence (P11884 whole entry): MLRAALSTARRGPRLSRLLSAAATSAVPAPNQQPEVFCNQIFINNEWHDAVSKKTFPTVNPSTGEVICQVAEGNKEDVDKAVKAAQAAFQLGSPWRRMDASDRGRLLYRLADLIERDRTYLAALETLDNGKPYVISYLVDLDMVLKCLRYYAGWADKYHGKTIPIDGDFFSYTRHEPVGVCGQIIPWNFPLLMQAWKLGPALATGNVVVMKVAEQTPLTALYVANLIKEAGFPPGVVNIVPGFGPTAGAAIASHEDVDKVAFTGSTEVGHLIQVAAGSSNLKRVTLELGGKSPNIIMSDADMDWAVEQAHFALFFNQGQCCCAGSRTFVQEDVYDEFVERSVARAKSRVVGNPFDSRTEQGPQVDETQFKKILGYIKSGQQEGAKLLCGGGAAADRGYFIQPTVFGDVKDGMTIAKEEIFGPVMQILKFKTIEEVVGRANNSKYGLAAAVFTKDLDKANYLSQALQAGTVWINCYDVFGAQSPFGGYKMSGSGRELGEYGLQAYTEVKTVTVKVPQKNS
As to the kind of experiment: Inhibition of Sprague-Dawley rat mitochondrial aldehyde dehydrogenase.

For assay [2], the target named is T2, Aldehyde dehydrogenase, cytosolic 1 (Rattus norvegicus, UniProt P13601).
T2 sequence (P13601 whole entry): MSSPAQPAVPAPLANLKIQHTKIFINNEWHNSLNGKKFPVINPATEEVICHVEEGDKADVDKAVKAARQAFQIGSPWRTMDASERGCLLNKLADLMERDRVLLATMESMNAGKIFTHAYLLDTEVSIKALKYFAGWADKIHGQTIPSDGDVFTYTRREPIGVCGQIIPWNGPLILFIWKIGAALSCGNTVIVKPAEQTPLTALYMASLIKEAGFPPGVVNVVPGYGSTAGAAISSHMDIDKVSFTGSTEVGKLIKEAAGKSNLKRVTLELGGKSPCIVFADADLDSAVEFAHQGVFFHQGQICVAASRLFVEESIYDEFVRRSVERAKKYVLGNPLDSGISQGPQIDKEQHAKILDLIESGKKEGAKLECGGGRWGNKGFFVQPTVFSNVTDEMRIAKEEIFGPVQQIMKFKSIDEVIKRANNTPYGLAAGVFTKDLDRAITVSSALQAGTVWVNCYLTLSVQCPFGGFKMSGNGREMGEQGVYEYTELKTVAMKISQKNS
As to the kind of experiment: Inhibition of Sprague-Dawley rat cytosolic aldehyde dehydrogenase.

A short description of assay [3]: Inhibition of Sprague-Dawley rat cytosolic alcohol dehydrogenase.

Each structure is given as a SMILES string.

For `O=C1c2cc(CO)cc(O)c2C(=O)c2c1ccc(C1(C3O[C@H](CO)[C@@H](O)[C@H](O)[C@H]3O)c3cccc(O)c3C(=O)c3c(O)cc(CO)cc31)c2O` (stereo partly drawn) [listing 1 of 2 here], the concentration for half-maximal inhibition (IC50) in assay [1] is 0.36 µM; in assay [2], 0.16 µM; in assay [3], 0.055 µM.

As for `C#CCN(C)Cc1ccccc1` [PARGYLINE], the half-inhibitory concentration (IC50) is 5.6 µM in assay [1] and 300 µM in assay [2].

Take `O=C1c2cc(CO)cc(O)c2C(=O)c2c1ccc(C1(C3O[C@H](CO)[C@@H](O)[C@H](O)[C@H]3O)c3cccc(O)c3C(=O)c3c(O)cc(CO)cc31)c2O` (stereo partly drawn) [listing 2 of 2 here]: the concentration for half-maximal inhibition (IC50) in assay [1] amounted to 0.72 µM; in assay [2], 0.53 µM; in assay [3] it was 0.011 µM.

`c1cn[nH]c1` [PYRAZOLE] displayed a half-maximal inhibitory concentration (IC50) in assay [3] of 9.8 µM.

Regarding `O=C1c2cccc(O)c2C(=O)c2c(O)cc(CO)cc21` [ALOE-EMODIN], the IC50 in assay [2] stood at 6 µM; in assay [3], 24.4 µM.

On to `COc1cc(-c2c(C)cc(O)cc2O[C@@H]2O[C@@H](CO)[C@@H](O)[C@H](O)[C@H]2O)oc(=O)c1` [ALOENIN], for which the IC50 in assay [2] worked out at 27 µM; in assay [3], 33.1 µM.
